From US7199113B2, “Pharmaceutically active compounds and methods of use thereof” (priority 1998, dated 2007)

What was measured:
Type in all cases: biochemical
[1] = target: T1, human recombinant TF/VIIa complex (lipidated) (Homo sapiens, UniProt P13726); test: TF/VIIa-dependent FX activation assay
T1 construct: Truncated recombinant human tissue factor (e.g. composed of 243 amino acids) is expressed in E. coli; host or cells: E. coli (TF)

trypsin = test: Trypsin activity assay; details: statement on Table 1 (FIG. 2(a))
Method: For trypsin activity assay, 4 μl of trypsin (100 nM) was first mixed with 61 μl of buffer, 5 μl of DMSO or 5 μl of compound (in DMSO), followed by 15 minute incubation at 37° C. Then 10 μl of substrate S-2222 (4.8 mM) was added to start the reaction. After a 15 minute incubation at 37° C., 20 μl of 50% acetic acid was added to quench the reaction. Absorbance at 405 nm was then measured and the percent inhibition of trypsin activity was calculated from OD405 nm values in the absence and presence of a compound.

FVIIa = target: T2, FVIIa (Homo sapiens, UniProt P08709); test: FVIIa-dependent FX activation (TF omitted); details: statement on Table 2 (FIG. 2(b))
T2 construct: proteolytic cleavage of the zymogen FVII to the active serine protease FVIIa; purchased Enzyme Research Laboratories Inc
T2 sequence (P08709 213-466 limits assumed): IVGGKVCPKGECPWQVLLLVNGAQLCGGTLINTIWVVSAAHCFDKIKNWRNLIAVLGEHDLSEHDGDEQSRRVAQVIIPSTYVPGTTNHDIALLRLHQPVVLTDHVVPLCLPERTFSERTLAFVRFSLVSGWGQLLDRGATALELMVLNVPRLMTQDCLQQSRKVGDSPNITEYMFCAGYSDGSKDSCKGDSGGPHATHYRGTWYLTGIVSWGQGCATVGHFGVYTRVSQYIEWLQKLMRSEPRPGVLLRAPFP
T2 sequence (P08709 61-212 limits assumed): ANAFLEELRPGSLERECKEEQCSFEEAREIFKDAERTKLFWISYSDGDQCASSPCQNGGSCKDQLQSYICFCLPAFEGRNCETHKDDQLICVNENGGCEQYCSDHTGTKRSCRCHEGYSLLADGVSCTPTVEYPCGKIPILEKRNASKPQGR
Method: FVIIa alone in the presence of phospholipids and calcium is also able to activate FX, although at a very low rate. This experiment was designed to examine whether compounds 1 and 2 inhibit FVIIa-dependent FX activation if TF is omitted. […] This assay was done at relatively high FVIIa concentrations. Six microliters of compound 1(1 mM in 10% DMSO) or 10% DMSO was mixed with 40 μl of 25 mM HEPES-NaOH, 5 mM CaCl2, 150 mM NaCl, 0.1% BSA, pH 7.5 containing phosphatidylcholine (0.07 mg/ml) and phosphatidylserine (0.03 mg/ml). Then 4 μl of FVIIa (1.5 μM) and 10 μl of FX (180 nM) were added and mixed. The mixture was incubated for 1 hour at 37° C. Then 10 μl of EDTA (400 mM) was added to stop FVII activity by removing the calcium required for factor VII activity. Then 10 μl of FXa substrate S-2765 (3.2 mM) was added to measure the FXa activity generated by FVIIa. After 16 minutes incubation at 37° C., 20 μl of 50% acetic acid was added to quench the reaction. Absorbance at 405 nm was read and the percent inhibition of FVIIa-dependent FX activation was calculated from OD405 nm values in the absence and presence of compound 1.

T1 sequence (P13726 33-275 limits assumed, one chain of several): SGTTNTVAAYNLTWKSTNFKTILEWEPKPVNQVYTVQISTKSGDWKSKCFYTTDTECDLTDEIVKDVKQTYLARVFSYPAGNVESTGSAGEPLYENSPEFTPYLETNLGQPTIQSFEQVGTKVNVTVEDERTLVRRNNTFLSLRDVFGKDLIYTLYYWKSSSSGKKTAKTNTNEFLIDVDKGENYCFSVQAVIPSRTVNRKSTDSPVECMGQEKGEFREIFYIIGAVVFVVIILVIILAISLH

| SMILES | IC50 ([1]; TF/VIIa, FX and compound added simultaneously, FX 5 nM) [µM] | IC50 ([1]; TF/VIIa, FX and compound added simultaneously, FX 30 nM) [µM] | IC50 ([1]; compound preincubated with TF/VIIa 15 minutes at 37° C. prior to FX, FX 5 nM) [µM] | inhibition of trypsin activity (trypsin) | inhibition of FVIIa-dependent FX activation (FVIIa) |
| --- | --- | --- | --- | --- | --- |
| O=P(O)(O)C(CNc1cccc(O)c1)P(=O)(O)O [Compound 1, 1-(bisphosponate)-2-amino(3-hydroxyphenyl)ethyl] | 18.1 | 33.2 | 8.3 | do not inhibit trypsin activity | does not inhibit FVIIa-dependent FX activation |
| O=P(O)(O)C(CNc1ccc(O)cc1)P(=O)(O)O [Compound 2] |  |  |  | do not inhibit trypsin activity |  |
